This test concerns the target Sodium channel protein type 9 subunit alpha (Homo sapiens, UniProt Q15858). Nature of the test: cell-based.
Sodium channel protein type 9 subunit alpha, sequence (Q15858 whole entry): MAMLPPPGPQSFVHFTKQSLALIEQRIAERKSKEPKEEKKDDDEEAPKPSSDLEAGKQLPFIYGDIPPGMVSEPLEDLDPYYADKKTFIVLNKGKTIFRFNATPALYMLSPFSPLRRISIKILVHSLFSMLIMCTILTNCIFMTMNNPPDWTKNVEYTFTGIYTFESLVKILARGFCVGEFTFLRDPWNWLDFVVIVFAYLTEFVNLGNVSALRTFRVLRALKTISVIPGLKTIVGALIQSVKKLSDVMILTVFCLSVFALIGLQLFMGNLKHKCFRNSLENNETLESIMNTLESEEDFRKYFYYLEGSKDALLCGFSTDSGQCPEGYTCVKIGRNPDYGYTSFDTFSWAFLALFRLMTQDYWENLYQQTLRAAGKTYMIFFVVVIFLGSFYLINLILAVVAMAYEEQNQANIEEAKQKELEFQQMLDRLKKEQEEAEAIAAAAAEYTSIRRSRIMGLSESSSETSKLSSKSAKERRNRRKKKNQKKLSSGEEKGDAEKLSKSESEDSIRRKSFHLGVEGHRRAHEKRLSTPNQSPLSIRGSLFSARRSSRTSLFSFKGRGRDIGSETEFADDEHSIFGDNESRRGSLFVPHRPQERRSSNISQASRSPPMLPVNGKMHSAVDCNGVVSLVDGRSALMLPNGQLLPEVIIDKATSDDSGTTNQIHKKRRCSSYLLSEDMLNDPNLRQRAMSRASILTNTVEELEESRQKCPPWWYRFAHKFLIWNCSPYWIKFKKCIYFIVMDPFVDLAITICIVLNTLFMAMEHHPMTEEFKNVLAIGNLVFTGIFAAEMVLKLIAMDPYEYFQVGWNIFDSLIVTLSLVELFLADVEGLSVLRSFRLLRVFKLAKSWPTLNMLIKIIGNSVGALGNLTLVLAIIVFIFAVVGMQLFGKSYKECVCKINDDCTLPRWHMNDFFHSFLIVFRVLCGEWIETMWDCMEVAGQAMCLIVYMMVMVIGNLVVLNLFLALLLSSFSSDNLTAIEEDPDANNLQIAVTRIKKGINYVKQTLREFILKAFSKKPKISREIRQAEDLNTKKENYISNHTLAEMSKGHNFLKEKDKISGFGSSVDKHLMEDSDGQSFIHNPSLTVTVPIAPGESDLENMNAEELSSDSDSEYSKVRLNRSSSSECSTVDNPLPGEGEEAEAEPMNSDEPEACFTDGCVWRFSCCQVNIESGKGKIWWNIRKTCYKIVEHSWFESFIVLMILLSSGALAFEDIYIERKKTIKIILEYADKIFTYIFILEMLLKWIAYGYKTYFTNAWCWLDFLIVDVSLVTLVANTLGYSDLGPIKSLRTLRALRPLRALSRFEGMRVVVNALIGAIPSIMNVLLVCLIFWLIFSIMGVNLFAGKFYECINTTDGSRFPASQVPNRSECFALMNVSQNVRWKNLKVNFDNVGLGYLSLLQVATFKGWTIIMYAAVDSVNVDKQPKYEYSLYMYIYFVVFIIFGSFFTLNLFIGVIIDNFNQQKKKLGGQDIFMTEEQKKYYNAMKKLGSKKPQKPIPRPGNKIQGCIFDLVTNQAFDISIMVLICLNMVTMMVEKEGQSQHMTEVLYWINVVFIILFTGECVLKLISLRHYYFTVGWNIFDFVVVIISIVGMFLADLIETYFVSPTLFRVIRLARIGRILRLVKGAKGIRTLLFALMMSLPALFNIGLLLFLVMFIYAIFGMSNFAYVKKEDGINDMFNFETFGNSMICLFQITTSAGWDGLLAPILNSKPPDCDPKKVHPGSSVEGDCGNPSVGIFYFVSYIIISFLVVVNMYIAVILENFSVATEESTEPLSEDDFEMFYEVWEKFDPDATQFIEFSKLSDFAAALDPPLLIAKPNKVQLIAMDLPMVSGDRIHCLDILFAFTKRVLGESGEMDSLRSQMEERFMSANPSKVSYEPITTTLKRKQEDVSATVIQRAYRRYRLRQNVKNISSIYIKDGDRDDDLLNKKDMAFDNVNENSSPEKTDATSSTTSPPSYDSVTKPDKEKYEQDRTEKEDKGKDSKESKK
One may read the IC50 as the point on the concentration scale where inhibition reaches its midpoint. A lower IC50 goes with greater potency in that assay. `COc1cc(Oc2ccc(S(=O)(=O)Nc3ccc(F)cn3)cc2C#N)ccc1-n1cccn1` showed an IC50 of 3000 nM.
Turning to `N#Cc1cc(S(=O)(=O)Nc2nccs2)ccc1Oc1cccc(-n2ccc(C(F)(F)F)n2)c1`, 930 nM corresponded to half-maximal inhibition (IC50).
Compound `N#Cc1cc(S(=O)(=O)Nc2nncs2)ccc1Oc1ccc(Cl)cc1-c1cc(N2CCOCC2)ncn1` had a half-maximal inhibitory concentration (IC50) of 1000 nM.
`CCn1nc(C(F)(F)F)cc1-c1cccc(Oc2ccc(S(=O)(=O)Nc3ccc(F)cn3)cc2C#N)c1`: the IC50 was 1000 nM.
In the case of `N#Cc1cc(S(=O)(=O)Nc2nccs2)ccc1Oc1ccc(-c2cc(C3CC3)n[nH]2)c(Cl)c1`, the IC50 is 1000 nM.
In turn, `N#Cc1cc(S(=O)(=O)Nc2nccs2)ccc1Oc1ccc(-n2cc(C(N)=O)cn2)cc1` showed an IC50 of 1000 nM.
The result for `N#Cc1cc(S(=O)(=O)Nc2cscn2)ccc1Oc1ccc(Cl)cc1-c1ccn(C(F)(F)F)n1` reads 1000 nM; that for `Cc1cc(C)n(-c2ccc(Oc3ccc(S(=O)(=O)Nc4nccs4)c(F)c3)cc2)n1`, 1000 nM; that for `N#Cc1cc(SNc2ncns2)ccc1Oc1ccc(F)cc1C1CC1`, 1000 nM.
The compound `N#Cc1cc(S(=O)(=O)Nc2ncns2)ccc1Oc1ccc(-n2cc(COC(=O)C(F)(F)F)cn2)cc1` showed an IC50 of 1000 nM.
As to `N#Cc1cc(S(=O)(=O)Nc2ncns2)ccc1Oc1ccc(-n2cc(CO)cn2)cc1`, the IC50 was 1000 nM.
The compound `N#Cc1cc(S(=O)(=O)Nc2nccs2)ccc1Oc1ccc(-c2cc(C(F)(F)F)n(CCCF)n2)cc1F` had an IC50 of 1000 nM.
As for `CC1CN(c2ccc(Oc3ccc(S(=O)(=O)Nc4nccs4)cc3C#N)cc2)C(=O)N1` (stereo not drawn), inhibition was half-maximal at 1000 nM (IC50).
The result for `CC(C)C1CN(c2ccc(Oc3ccc(S(=O)(=O)Nc4nccs4)cc3C#N)cc2)C(=O)N1` (stereo not drawn) reads 1000 nM; that for `COC(=O)c1cc(Oc2ccc(S(=O)(=O)Nc3nccs3)cc2C#N)ccc1-n1cc(Cl)cn1`, 1000 nM.
In the case of `O=S(=O)(Nc1cscn1)c1cc(Cl)c(Oc2cc(C(F)(F)F)ccc2-c2cncnc2)cc1F` it was 1000 nM; in that of `Cn1cnnc1-c1cc(Cl)ccc1Oc1ccc(S(=O)(=O)Nc2nccs2)cc1F`, 1000 nM.
For the compound `N#Cc1cc(S(=O)(=O)Nc2ncns2)cc(F)c1Oc1ccc(F)cc1-c1cn[nH]c1`, the IC50 was 740 nM.
In the case of `CCn1nc(C(F)(F)F)cc1-c1ccc(Oc2ccc(S(=O)(=O)Nc3nncs3)cc2C#N)cc1` it was 770 nM; in that of `CCn1nc(C(F)(F)F)cc1-c1ccc(Oc2ccc(S(=O)(=O)Nc3ncc(F)s3)cc2F)cc1`, 820 nM; in that of `Cc1cccc(-c2ccc(OC(C)C)cc2)c1Oc1ccc(S(=O)(=O)Nc2ncns2)cc1C#N`, 840 nM.
In the case of `N#Cc1cc(S(=O)(=O)Nc2nccs2)ccc1Oc1ccc(Cl)cc1-c1ccccn1` it was 580 nM; in that of `N#Cc1cc(S(=O)(=O)Nc2ncns2)ccc1Oc1ccccc1-c1cccc(F)c1`, 670 nM; in that of `CN(C)C(=O)c1cccc(-c2ccccc2)c1Oc1ccc(S(=O)(=O)c2ncns2)cc1C#N`, 740 nM.
In the case of `N#Cc1cc(S(=O)(=O)Nc2nccs2)ccc1Oc1ccc(Cl)cc1-c1c[nH]nc1C(F)(F)F` it was 430 nM; in that of `N#Cc1cc(S(=O)(=O)Nc2ncc(F)s2)ccc1Oc1ccccc1-c1ccccc1`, 530 nM.
`CC(C)(C)OC(=O)N1CCC(c2cc(Cl)ccc2Oc2ccc(S(=O)(=O)Nc3ncns3)cc2C#N)CC1` showed an IC50 of 350 nM.
`N#Cc1cc(S(=O)(=O)Nc2nccs2)ccc1Oc1ccc(-c2cc(C(F)(F)F)ccn2)cc1`: the IC50 is 370 nM.
In the case of `Cc1nn(C(C)(C)C)cc1-c1cc(Cl)ccc1Oc1cc(F)c(S(=O)(=O)Nc2nncs2)cc1Cl` it was 300 nM; in that of `N#Cc1cc(S(=O)(=O)Nc2ncns2)ccc1Oc1cc(C(F)(F)F)nn1Cc1ccccc1`, 300 nM; in that of `CCn1nc(C)c(-c2ccccc2Oc2ccc(S(=O)(=O)Nc3ncns3)cc2C#N)c1C`, 300 nM.
The result for `CCOCn1nncc1-c1cc(Cl)ccc1Oc1ccc(S(=O)(=O)Nc2nccs2)cc1C#N` reads 300 nM; that for `Cn1cnc(-c2cc(Cl)ccc2Oc2ccc(S(=O)(=O)Nc3nccs3)cc2C#N)n1`, 300 nM.
In the case of `O=S(=O)(Nc1cscn1)c1cc(Cl)c(Oc2ccc(C(F)(F)F)cc2-c2cncc(CO)c2)cc1F` it was 300 nM.
For `Cn1ncnc1-c1cc(Cl)ccc1Oc1ccc(S(=O)(=O)Nc2ncc(F)s2)cc1C#N`, the IC50 was 300 nM.
For `Cn1nccc1-c1cc(C(F)(F)F)ncc1Oc1ccc(S(=O)(=O)Nc2ncc(Cl)s2)cc1C#N`, the IC50 is 220 nM.
For `N#Cc1cc(S(=O)(=O)Nc2nccs2)ccc1Oc1ccc(F)cc1-c1ccc(F)nc1`, the concentration for half-maximal inhibition (IC50) was 230 nM.
In turn, `O=S(=O)(Nc1cscn1)c1cc(Cl)c(Oc2cc(C(F)(F)F)ccc2-c2cn[nH]c2)cc1F` showed an IC50 of 260 nM.
In turn, `N#Cc1cc(S(=O)(=O)Nc2ncns2)ccc1Oc1ccc(C(F)(F)F)cc1C1=CN(O)CC=C1` had an IC50 of 110 nM.
Take `CCn1nccc1-c1cc(F)ccc1Oc1ccc(S(=O)(=O)Nc2nccs2)cc1C#N`: the IC50 was 90 nM.
Turning to `N#Cc1cc(S(=O)(=O)Nc2ncc(Cl)s2)ccc1Oc1ccc(Cl)cc1-c1ccnc(N)c1`, the IC50 is 97 nM.
Regarding `N#Cc1cc(S(=O)(=O)Nc2nncs2)ccc1Oc1ccc(OC(F)(F)F)cc1-c1ccnnc1`, inhibition was half-maximal at 100 nM (IC50).
In the case of `N#Cc1cc(S(=O)(=O)Nc2ccc(F)cn2)ccc1Oc1ccc(-c2cocn2)cc1` it was 3000 nM; in that of `COc1cc(-c2ccc(Oc3ccc(S(=O)(=O)Nc4nccs4)cc3)c(F)c2)n(C)n1`, 2700 nM; in that of `N#Cc1cc(S(=O)(=O)Nc2ccc(F)cn2)ccc1Oc1ccccc1C1CCCCO1` (stereo not drawn), 3000 nM.
The result for `N#Cc1cc(S(=O)(=O)Nc2ccccc2C(F)(F)F)ccc1Oc1ccccc1-c1ccccc1` reads 3000 nM.
Consider `CC(C)Oc1cc(-c2cc(F)ccc2Oc2ccc(S(=O)(=O)Nc3cscn3)cc2C#N)n(C)n1`, for which 3000 nM corresponded to half-maximal inhibition (IC50).
In the case of `Cc1ccc(NS(=O)(=O)c2ccc(Oc3ccccc3-c3ccccc3)c(C#N)c2)nc1` it was 3000 nM.
Turning to `CCc1nnc(C)n1-c1ccc(Oc2ccc(S(=O)(=O)Nc3ccc(F)cn3)cc2C#N)cc1`, half-maximal inhibition (IC50) was put at 3000 nM.
`N#Cc1cc(S(=O)(=O)Nc2ccc(F)cn2)ccc1Oc1ccc(-n2ccnc2)cc1` showed an IC50 of 3000 nM.
In the case of `Cc1nc(-c2cccc(Oc3ccc(S(=O)(=O)Nc4ccc(F)cn4)cc3C#N)c2)no1` it was 3000 nM; in that of `Cc1nnc(-c2ccc(Oc3ccc(S(=O)(=O)Nc4ccc(F)cn4)cc3C#N)cc2)o1`, 3000 nM; in that of `Cn1nccc1-c1cc(Cl)ccc1Oc1ccc(S(=O)(=O)Nc2ccon2)cc1C#N`, 1500 nM.
`N#Cc1cc(S(=O)(=O)Nc2ncns2)ccc1Oc1ccc(-c2nc(CO)co2)cc1` had an IC50 of 1000 nM.
The result for `N#Cc1cc(S(=O)(=O)Nc2nccs2)ccc1Oc1ccc(-n2cc(F)cn2)cc1` reads 1000 nM.
The result for `Cc1cc(-c2ccnn2C)ccc1Oc1ccc(S(=O)(=O)Nc2ncc(F)s2)cc1C#N` reads 1100 nM; that for `CC(C)Oc1cc(-c2cc(F)ccc2Oc2ccc(S(=O)(=O)Nc3nccs3)cc2C#N)n(C)n1`, 1000 nM.
`CCn1nc(-c2ccc(Oc3ccc(S(=O)(=O)Nc4nccs4)cc3C#N)c(F)c2)cc1C(F)(F)F` had an IC50 of 1000 nM.
Compound `N#Cc1cc(S(=O)(=O)Nc2nccs2)ccc1Oc1cnn(-c2ccc(Cl)cc2)c1` showed an IC50 of 1000 nM.
With `N#Cc1cc(S(=O)(=O)Nc2nccs2)ccc1Oc1cnn(-c2ccc(Cl)cc2Cl)c1`, the IC50 is 1000 nM.
In the case of `CCn1nc(C(F)(F)F)cc1-c1ccc(Oc2ccc(S(=O)(=O)Nc3ncccn3)cc2C#N)cc1` it was 1000 nM; in that of `Cn1ncnc1-c1cc(Cl)ccc1Oc1ccc(S(=O)(=O)Nc2ncc(F)s2)cc1F`, 1000 nM; in that of `CN(C)C(=O)c1cnn(-c2ccc(Oc3ccc(S(=O)(=O)Nc4nccs4)cc3C#N)cc2)c1`, 1000 nM.
As for `COCc1cnn(-c2ccc(Oc3ccc(S(=O)(=O)Nc4nccs4)cc3C#N)cc2)c1`, the IC50 was 1000 nM.
`CN(C)Cc1cnn(-c2ccc(Oc3ccc(S(=O)(=O)Nc4nccs4)cc3C#N)cc2)c1` gave an IC50 of 1000 nM.
In the case of `CC(C)(C)NC(=O)c1cnn(-c2ccc(Oc3ccc(S(=O)(=O)Nc4nccs4)cc3C#N)cc2)c1` it was 1000 nM.
The result for `N#Cc1cc(S(=O)(=O)Nc2cscn2)ccc1Oc1ccc(Cl)cc1-n1cnc(C(F)(F)F)c1` reads 1000 nM.
Consider `N#Cc1cc(S(=O)(=O)Nc2cscn2)ccc1Oc1ccc(F)cc1-c1cnn(CC(F)(F)F)c1`, for which half-maximal inhibition (IC50) was put at 1000 nM.
`N#Cc1ccnc(NS(=O)(=O)c2ccc(Oc3ccccc3-c3ccccc3)c(C#N)c2)c1` showed an IC50 of 1000 nM.
`Cn1nccc1-c1cccc(Oc2ccc(S(=O)(=O)Nc3nccs3)cc2C#N)c1` gave an IC50 of 1000 nM.
The result for `COc1cccc(-c2ccc(Oc3ccc(S(=O)(=O)Nc4nccs4)cc3C#N)cc2)n1` reads 1000 nM.
The result for `N#Cc1cc(S(=O)(=O)Nc2nccs2)ccc1Oc1ccc(-c2nccc(C(F)(F)F)n2)cc1` reads 1000 nM; that for `N#Cc1cc(S(=O)(=O)Nc2nccs2)ccc1Oc1ccc(-c2cn(CC(F)(F)F)nc2N)cc1`, 1000 nM; that for `Cn1cc(-c2ccc(Oc3ccc(S(=O)(=O)Nc4nccs4)cc3C#N)cc2)c(N)n1`, 1000 nM.
`N#Cc1cc(S(=O)(=O)Nc2nccs2)ccc1Oc1ccc(N2CCNC2=O)cc1` showed an IC50 of 1000 nM.
In the case of `CN1CCN(c2ccc(Oc3ccc(SNc4nccs4)cc3C#N)cc2)C1=O` it was 1000 nM; in that of `N#Cc1cc(S(=O)(=O)Nc2nccs2)ccc1Oc1ccc(N2CCCC2=O)cc1`, 1000 nM.
The result for `N#Cc1cc(S(=O)(=O)Nc2nccs2)ccc1Oc1ccc(-n2cccn2)cc1C(F)(F)F` reads 1000 nM.
`N#Cc1cc(S(=O)(=O)Nc2nccs2)ccc1Oc1ccc(-n2cc(Cl)cn2)c(C(=O)O)c1` gave a concentration for half-maximal inhibition (IC50) of 1000 nM.
The result for `CC(C)(C)n1ccc(-c2cc(F)ccc2Oc2cc(F)c(S(=O)(=O)Nc3cscn3)cc2Cl)n1` reads 1000 nM; that for `Nc1nccc(-c2cc(F)ccc2Oc2cc(F)c(S(=O)(=O)Nc3ncc(Cl)s3)cc2F)n1`, 1000 nM.
In the case of `Cc1scnc1NS(=O)(=O)c1cc(Cl)c(Oc2ccc(F)cc2-c2ccnn2C)cc1F`, the IC50 was 1000 nM.
The result for `Cn1nccc1-c1ccc(Oc2ccc(S(=O)(=O)Nc3nccs3)cc2C#N)cn1` reads 1000 nM.

The values are drawn from ChEMBL document CHEMBL2321810, “QSAR investigation of NaV1.7 active compounds using the SVM/Signature approach and the Bioclipse Modeling platform” (Bioorg Med Chem Lett, 2013).
